Laboratory results published in patent US20260158033A1, “VECABRUTINIB FOR THE TREATMENT OF GRAFT-VERSUS-HOST DISEASE” (Viracta Therapeutics, Inc., priority 2021, published 2026).

Legend:
[1] = target: BTK (Homo sapiens, UniProt Q06187); details: reversible, non-covalent; cited from earlier work
[2] = test system: B cells and T cells; assay: Immunophenotyping of spleen B cells and T cells by flow cytometry in cGVHD mice; format: in vivo, mouse (BALB/c recipients); details: during treatment (day 40)
Procedure: (§1) A murine model of sclerodermatous cGVHD was initiated by adoptive transfer of T-cell depleted bone marrow plus whole splenocytes from B10.D2 donors into BALB/c recipients that were previously subjected to sub-lethal irradiation. Total bone marrow and irradiation only groups were included as controls. […] Body weight and clinical symptoms (appearance, activity, skin symptoms, diarrhea, conjunctivitis) were measured throughout the study. Immunophenotyping for B cells and T cells was performed on spleens collected from euthanized mice by flow cytometry at two timepoints (day 40 during treatment and on day 76 post-treatment). Levels of circulating immunoglobulins were measured by multiplex cytokine assay at both timepoints.
(§2) On day 40 (during treatment) and day 76 (post-treatment) groups of mice were euthanized for immunophenotyping analysis utilizing a 22-color flow cytometry panel. […] Scoring between 0-2 was assigned for each of the parameters (appearance, activity, skin symptoms, diarrhea, conjunctivitis) and totaled for each mouse.

[3] = test system: circulating immunoglobulins; assay: Circulating immunoglobulins by multiplex cytokine assay in cGVHD mice; format: in vivo, mouse (BALB/c recipients); details: during and post treatment, compared to vehicle
Procedure: as §1

[4] = target: T1, ITK (Homo sapiens, UniProt Q08881); details: ITK expressed in T cells; cited from earlier work
T1 sequence (Q08881 1-620): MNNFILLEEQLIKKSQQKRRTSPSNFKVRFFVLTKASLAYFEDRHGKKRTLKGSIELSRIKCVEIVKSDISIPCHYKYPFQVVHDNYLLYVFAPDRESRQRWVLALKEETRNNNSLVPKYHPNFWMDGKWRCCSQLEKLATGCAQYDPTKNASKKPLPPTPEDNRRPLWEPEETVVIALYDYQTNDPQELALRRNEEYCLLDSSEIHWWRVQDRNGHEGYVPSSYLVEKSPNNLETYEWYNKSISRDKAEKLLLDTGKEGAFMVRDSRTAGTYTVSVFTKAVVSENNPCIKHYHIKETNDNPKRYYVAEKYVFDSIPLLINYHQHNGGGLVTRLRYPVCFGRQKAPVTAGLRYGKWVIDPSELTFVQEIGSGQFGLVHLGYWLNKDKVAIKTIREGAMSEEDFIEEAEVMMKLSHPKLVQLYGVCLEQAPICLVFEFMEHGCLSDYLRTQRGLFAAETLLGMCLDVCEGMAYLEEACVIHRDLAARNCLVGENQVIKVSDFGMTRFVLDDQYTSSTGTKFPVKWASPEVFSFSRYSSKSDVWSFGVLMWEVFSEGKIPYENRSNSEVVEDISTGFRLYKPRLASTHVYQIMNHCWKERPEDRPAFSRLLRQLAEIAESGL

[5] = test system: murine model of sclerodermatous cGVHD; assay: Murine model of sclerodermatous cGVHD: clinical GVHD score and symptoms; format: in vivo, mouse (BALB/c recipients, B10.D2 donors)
Procedure: as §1, §2

[6] = mouse, in vivo
Procedure: as §1, §2

BTK, sequence (Q06187 whole entry, species assumed): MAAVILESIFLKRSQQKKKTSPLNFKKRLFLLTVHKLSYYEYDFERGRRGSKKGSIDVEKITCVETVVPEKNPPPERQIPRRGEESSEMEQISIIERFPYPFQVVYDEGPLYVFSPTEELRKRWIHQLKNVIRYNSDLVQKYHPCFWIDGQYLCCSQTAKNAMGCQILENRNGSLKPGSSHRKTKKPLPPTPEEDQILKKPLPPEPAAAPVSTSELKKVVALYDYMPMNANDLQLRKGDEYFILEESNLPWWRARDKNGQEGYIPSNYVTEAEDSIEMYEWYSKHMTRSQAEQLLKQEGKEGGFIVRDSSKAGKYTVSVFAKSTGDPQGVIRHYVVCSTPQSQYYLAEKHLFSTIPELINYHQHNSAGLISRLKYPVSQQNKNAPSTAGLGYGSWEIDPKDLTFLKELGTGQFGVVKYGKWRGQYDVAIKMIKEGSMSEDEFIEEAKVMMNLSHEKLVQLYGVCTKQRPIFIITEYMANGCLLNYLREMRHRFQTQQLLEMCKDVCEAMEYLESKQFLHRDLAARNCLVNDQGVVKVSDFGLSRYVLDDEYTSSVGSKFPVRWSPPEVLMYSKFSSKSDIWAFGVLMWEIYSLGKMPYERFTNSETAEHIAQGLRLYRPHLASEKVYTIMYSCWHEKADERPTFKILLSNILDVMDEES

Compound: NC(=O)[C@H]1CCN(c2ncnc(N)c2F)C[C@@H]1N1CCC[C@@H](Nc2cc(Cl)cc(C(F)(F)F)c2)C1=O [Vecabrutinib, (3R,3′R,4'S)-1′-(6-amino-5-fluoropyrimidin-4-yl)-3-((3-chloro-5-(trifluoromethyl)phenyl)amino)-2-oxo-[1,3′-bipiperidine]-4′-carboxamide]
- BTK inhibition [1]: potent
- Activated and proliferating CD4+ and CD8+ T cells [2]: reduced
- B-cell activation [2]: reduced
- B-cell proliferation [2]: reduced
- CD4+ CXCR5+PD-1+ T follicular helper cells [2]: reduced
- CD4+CD25+ FoxP3+ Treg number [2]: reduced
- Cytotoxic granzyme-B+ CD8+ T cells [2]: reduced
- Expression of PD-1 on Tregs [2]: reduced
- Expression of antigen-presentation molecules CD80 and CD86 on B cells [2]: unchanged
- IL-4/5 secreted by B cells [2]: less
- IL-10 secreted by B cells [2]: less
- Number of B220+CD138+ plasma cells [2]: reduced
- Numbers of cytokine secreting CD4+ cells [2]: globally reduced
- Th1/Th2 or Th17/Treg ratios [2]: no differences
- Total B cell numbers [2]: retained
- Total CD3+ T cells [2]: reduced
- Circulating levels of IgA [3]: reduced
- Activity against ITK [4]: demonstrates activity
- Avg. Score Day 58 ([5]; average clinical GVHD score, 0-2 per parameter (appearance, activity, skin symptoms, diarrhea, conjunctivitis) totaled, Day 58, vecabrutinib 50 mg/kg once daily oral gavage, ibrutinib 30 mg/kg in drinking water, day 27 to 45): 2.50
- Avg. Score Day 66 ([5]; average clinical GVHD score, 0-2 per parameter totaled, Day 66, vecabrutinib 50 mg/kg once daily oral gavage, ibrutinib 30 mg/kg in drinking water, day 27 to 45): 1.30
- Avg. Score Day 71 ([5]; average clinical GVHD score, 0-2 per parameter totaled, Day 71, vecabrutinib 50 mg/kg once daily oral gavage, ibrutinib 30 mg/kg in drinking water, day 27 to 45): 2.90
- Clinical symptoms (appearance, activity, skin irritation, redness, alopecia and diarrhea) ([5]; treated groups, vecabrutinib 50 mg/kg oral, ibrutinib 30 mg/kg drinking water): significantly reduced
- Clinical score overall compared to ibrutinib ([5]; vecabrutinib-treated group vs ibrutinib, small sample size): trend toward a more favorable clinical score overall
- Body weight post-treatment [6]: recovered body weight
- Weight loss during treatment compared to vehicle [6]: slightly elevated

Compound: C=CC(=O)N1CCC[C@@H](n2nc(-c3ccc(Oc4ccccc4)cc3)c3c(N)ncnc32)C1 [Ibrutinib, reference compound]
- Body weight post-treatment [6]: recovered body weight
- Weight loss during treatment compared to vehicle [6]: slightly elevated
